Results published in patent US5389627A, “Cephem compounds” (priority 1993, dated 1995).
Converted amounts (≈) assume the structure as drawn.

Experiments:
Test in all cases: In vitro antibacterial activity, minimum inhibitory concentration
Assay type in all cases: cell-based
[1] = system: P.mirabilis ATCC25933; conditions: Proteus mirabilis; P.mirabilis ATCC25933; read-out: Minimum Inhibitory Concentration (MIC)
Text: (§1) As reference compounds, Cefotaxime (CTX), Ceftazidime (CAZ) and Cefpirome (CPR) were employed.

[2] = system: E.cloacae C4008; conditions: Enterobacter cloacae; E.cloacae C4008; read-out: Minimum Inhibitory Concentration (MIC)
Text: as §1

[3] = system: K.oxytoca C4022; conditions: Klebsiella oxytoca; K.oxytoca C4022; read-out: Minimum Inhibitory Concentration (MIC)
Text: as §1

[4] = system: S.aureus Smith; conditions: Staphylococcus aureus; S.aureus Smith; read-out: Minimum Inhibitory Concentration (MIC)
Text: as §1

[5] = system: E.coli ATCC25922; conditions: Escherichia coli; E.coli ATCC25922; read-out: Minimum Inhibitory Concentration (MIC)
Text: as §1

[6] = system: P.aeruginosa C2027; conditions: Pseudomonas aeruginosa; P.aeruginosa C2027; read-out: Minimum Inhibitory Concentration (MIC)
Text: as §1

[7] = system: S.aureus ATCC29213; conditions: Staphylococcus aureus; S.aureus ATCC29213; read-out: Minimum Inhibitory Concentration (MIC)
Text: as §1

[8] = system: S.pyogenes C4003; conditions: Streptococcus pyogenes; S.pyogenes C4003; read-out: Minimum Inhibitory Concentration (MIC)
Text: as §1

[9] = system: E.cloacae C4009; conditions: Enterobacter cloacae; E.cloacae C4009; read-out: Minimum Inhibitory Concentration (MIC)
Text: as §1

[10] = system: E.coli ATCC10536; conditions: Escherichia coli; E.coli ATCC10536; read-out: Minimum Inhibitory Concentration (MIC)
Text: as §1

[11] = system: P.aeruginosa C4070; conditions: Pseudomonas aeruginosa; P.aeruginosa C4070; read-out: Minimum Inhibitory Concentration (MIC)
Text: as §1

[12] = system: P.aeruginosa ATCC10145; conditions: Pseudomonas aeruginosa; P.aeruginosa ATCC10145; read-out: Minimum Inhibitory Concentration (MIC)
Text: as §1

[13] = system: MRSA C2208; conditions: Staphylococcus aureus; MRSA C2208; read-out: Minimum Inhibitory Concentration (MIC)
Text: as §1

[14] = system: S.epidermidis ATCC12228; conditions: Staphylococcus epidermidis; S.epidermidis ATCC12228; read-out: Minimum Inhibitory Concentration (MIC)
Text: as §1

[15] = system: S.marcescens ATCC27117; conditions: Serratia marcescens; S.marcescens ATCC27117; read-out: Minimum Inhibitory Concentration (MIC)
Text: as §1

[16] = system: K.pneumoniae C1040; conditions: Klebsiella pneumoniae; K.pneumoniae C1040; read-out: Minimum Inhibitory Concentration (MIC)
Text: as §1

[17] = system: S.typhimurium C4045; conditions: Salmonella enterica; S.typhimurium C4045; read-out: Minimum Inhibitory Concentration (MIC)
Text: as §1

[18] = system: P.aeruginosa ATCC27853; conditions: Pseudomonas aeruginosa; P.aeruginosa ATCC27853; read-out: Minimum Inhibitory Concentration (MIC)
Text: as §1

[19] = system: S.aureus C4036; conditions: Staphylococcus aureus; S.aureus C4036; read-out: Minimum Inhibitory Concentration (MIC)
Text: as §1

[20] = system: E.coli C4002; conditions: Escherichia coli; E.coli C4002; read-out: Minimum Inhibitory Concentration (MIC)
Text: as §1

[21] = system: S.pyogenes ATCC 8668; conditions: Streptococcus pyogenes, ATCC8668; S.pyogenes ATCC 8668; read-out: Minimum Inhibitory Concentration (MIC)
Text: as §1

[22] = system: S.marcescens C1052; conditions: Serratia marcescens; S.marcescens C1052; read-out: Minimum Inhibitory Concentration (MIC)
Text: as §1

[23] = system: S.Faecalis ATCC29212; conditions: Enterococcus faecalis
Text: as §1

[24] = system: P.rettgeri ATCC9919; conditions: Providencia rettgeri; P.rettgeri ATCC9919; read-out: Minimum Inhibitory Concentration (MIC)
Text: as §1

[25] = system: K.pneumoniae ATCC10031; conditions: Klebsiella pneumoniae; K.pneumoniae ATCC10031; read-out: Minimum Inhibitory Concentration (MIC)
Text: as §1

SMILES | MIC [1] [µg/mL] | MIC [2] [µg/mL] | MIC [3] [µg/mL] | MIC [4] [µg/mL] | MIC [5] [µg/mL] | MIC [6] [µg/mL] | MIC [7] [µg/mL] | MIC [8] [ng/mL] | MIC [9] [µg/mL] | MIC [10] [µg/mL] | MIC [11] [µg/mL] | MIC [12] [µg/mL] | MIC [13] [µg/mL] | MIC [14] [µg/mL] | MIC [15] [µg/mL] | MIC [16] [µg/mL] | MIC [17] [µg/mL] | MIC [18] [µg/mL] | MIC [19] [µg/mL] | MIC [20] [µg/mL] | other results
Nc1nc(/C(=N/O)C(=O)N[C@@H]2C(=O)N3C(C(=O)[O-])=C(C[n+]4ccc5[nH]c(=O)[nH]c5c4)CS[C@H]23)ns1 [Ex. 7, 7-β-[(Z)-2-(5-Amino-1,2,4-thiadiazol-3-yl)-2-hydroxyiminoacetamido]-3-[2-(1H, 3H)-oxo-imidazo[4,5-c]pyridiniummethyl]-3-cephem-4-carboxylate] | 0.1 (≈ 0.193 µM) | 0.1 (≈ 0.193 µM) | 1.56 (≈ 3.01 µM) | 6.25 (≈ 12.1 µM) | 0.05 (≈ 0.0966 µM) | 6.25 (≈ 12.1 µM) | 0.78 (≈ 1.51 µM) | 200 (≈ 0.386 µM) | 0.1 (≈ 0.193 µM) | 0.025 (≈ 0.0483 µM) | 50 (≈ 96.6 µM) | 12.5 (≈ 24.2 µM) | > 100 | 3.13 (≈ 6.05 µM) | 0.1 (≈ 0.193 µM) | 1.56 (≈ 3.01 µM) | 0.1 (≈ 0.193 µM) | 50 (≈ 96.6 µM) | 1.56 (≈ 3.01 µM) | 6.25 (≈ 12.1 µM) | MIC [21]: 100 ng/mL (≈ 0.193 µM); MIC [22]: 0.2 µg/mL (≈ 0.386 µM); MIC [23]: > 100 µg/mL; MIC [24]: 0.5 µg/mL (≈ 0.966 µM); MIC [25]: 0.025 µg/mL (≈ 0.0483 µM)
CO/N=C(\C(=O)N[C@@H]1C(=O)N2C(C(=O)[O-])=C(C[n+]3ccc4c(c3)NC(=C[N+](=O)[O-])N4)CS[C@H]12)c1csc(N)n1 [Ex. 1] | 0.1 (≈ 0.174 µM) | 0.05 (≈ 0.0872 µM) | 6.25 (≈ 10.9 µM) | 0.78 (≈ 1.36 µM) | 0.1 (≈ 0.174 µM) | 6.25 (≈ 10.9 µM) | 1.56 (≈ 2.72 µM) | 7 (≈ 0.0122 µM) | 0.2 (≈ 0.349 µM) | 0.05 (≈ 0.0872 µM) | > 100 | 50 (≈ 87.2 µM) | > 100 | 0.78 (≈ 1.36 µM) | 0.1 (≈ 0.174 µM) | 0.025 (≈ 0.0436 µM) | 0.1 (≈ 0.174 µM) | 50 (≈ 87.2 µM) | 1.56 (≈ 2.72 µM) | 0.1 (≈ 0.174 µM) | MIC [21]: 7 ng/mL (≈ 0.0122 µM); MIC [22]: 0.2 µg/mL (≈ 0.349 µM); MIC [23]: > 100 µg/mL; MIC [24]: 0.013 µg/mL (≈ 0.0227 µM); MIC [25]: 0.025 µg/mL (≈ 0.0436 µM)
CO/N=C(\C(=O)N[C@@H]1C(=O)N2C(C(=O)[O-])=C(C[n+]3ccc4[nH]c(=NC#N)[nH]c4c3)CS[C@H]12)c1csc(N)n1 [Ex. 3, 7-β-[(Z)-2-(2-Aminothiazol-4-yl)-2-methoxyiminoacetamido]-3-[2-(1H,3H)-cyanoimine-imidazo[4,5-c]pyridiniummethyl]-3-cephem-4-carboxylate] | 0.025 (≈ 0.0451 µM) | 0.013 (≈ 0.0234 µM) | 6.25 (≈ 11.3 µM) | 1.56 (≈ 2.81 µM) | 0.05 (≈ 0.0902 µM) | 6.25 (≈ 11.3 µM) | 3.13 (≈ 5.64 µM) | 4 (≈ 0.00721 µM) | 0.025 (≈ 0.0451 µM) | 0.013 (≈ 0.0234 µM) | 12.5 (≈ 22.5 µM) | 12.5 (≈ 22.5 µM) | > 100 | 0.78 (≈ 1.41 µM) | 0.025 (≈ 0.0451 µM) | 0.025 (≈ 0.0451 µM) | 0.025 (≈ 0.0451 µM) | 6.25 (≈ 11.3 µM) | 3.13 (≈ 5.64 µM) | 0.05 (≈ 0.0902 µM) | MIC [21]: 4 ng/mL (≈ 0.00721 µM); MIC [22]: 0.05 µg/mL (≈ 0.0902 µM); MIC [23]: > 100 µg/mL; MIC [24]: 0.007 µg/mL (≈ 0.0126 µM); MIC [25]: 0.007 µg/mL (≈ 0.0126 µM)
